The text below walks through data of US12459943B2, “Crystalline solid forms of a BET inhibitor” (Incyte Corporation, priority 2016, dated 2025).

The nature of series [1]: Relative stability and interconversion of crystalline forms in organic solvents. It is filed as physicochemical.
A short description of series [2]: Stability of crystalline forms in aqueous suspension. It is filed as physicochemical. As for the experimental part: Recrystallization conducted in a mixture of tetrahydrofuran (THF), acetone, and n-heptane using similar procedures as above afford Form II of the crystalline Compound 1 drug substance was obtained. Both Form I and Form II have very sharp melting endotherm peaks on DSC, and the two forms are about one degree difference in peak melting temperature: 266.4° C. for Form I and 267.5° C. for Form II.

SMILES strings stand for the structures.

As for `CN1C(=O)C(C)(C)Oc2c(-c3cn(C)c(=O)c4[nH]ccc34)cc(S(C)(=O)=O)cc21` [Form II, 2,2,4-trimethyl-8-(6-methyl-7-oxo-6,7-dihydro-1H-pyrrolo[2,3-c]pyridin-4-yl)-6-(methylsulfonyl)-2H-benzo[b][1,4]oxazin-3(4H)-one], the “relative stability of the crystalline form in IPA” value in series [1] (IPA) is given as “more stable”.

As for `CN1C(=O)C(C)(C)Oc2c(-c3cn(C)c(=O)c4[nH]ccc34)cc(S(C)(=O)=O)cc21` [Form I, 2,2,4-trimethyl-8-(6-methyl-7-oxo-6,7-dihydro-1H-pyrrolo[2,3-c]pyridin-4-yl)-6-(methylsulfonyl)-2H-benzo[b][1,4]oxazin-3(4H)-one], the “relative stability of the crystalline form in MeOH and acetone” value in series [1] (MeOH and acetone) is listed as “most stable form”. Further, the interconversion of forms entry in series [1] (mixture of methanol, acetone, and n-heptane, depending on solvent ratio, temperature, and time) is given as “could be interconverted to each other”. Further, the “stability in aqueous suspension” value in series [2] is “stable in aqueous suspension”.
